In ChEMBL document CHEMBL1921693, “Efficient synthesis and in vitro antitubercular activity of 1,2,3-triazoles as inhibitors of Mycobacterium tuberculosis” (2011):
Converted amounts (≈) assume the structure as drawn.

What follows are compounds tested on Mycobacterium tuberculosis (assay: Antituberculosis activity against Mycobacterium tuberculosis H37Rv by agar dilution method).
Format: functional

For `COC(=O)Cn1nnc(C(=O)OC)c1C(=O)OC`, which MIC is on record?
Its MIC is greater than 25 µg/mL.

With `CCOC(=O)c1nnn(Cc2ccccc2)c1C(=O)OCC` as the compound, how does the MIC read?
Its MIC is 12.5 µg/mL (≈ 41.2 µM).

With `CC[C@@H](CO)NCCN[C@@H](CC)CO` [ETHAMBUTOL] as the compound, how does the MIC read?
Its MIC is 3.25 µg/mL (≈ 15.9 µM).

`COC(=O)c1nnn(CC(=O)c2ccccc2)c1C(=O)OC` was tested. Which MIC did it give?
Its MIC is 12.5 µg/mL (≈ 41.2 µM).

`COC(=O)c1nnn(CC(=O)c2ccc(Br)cc2)c1C(=O)OC` was tested. Which MIC did it give?
Its MIC is 3.13 µg/mL (≈ 8.19 µM).

How did the MIC turn out when `CCOC(=O)c1nnn(CC(=O)c2ccc(OC)cc2)c1C(=O)OCC` was run?
Its MIC is 6.25 µg/mL (≈ 17.3 µM).

Which MIC does the source give for `CCOC(=O)c1nnn(CC(=O)c2ccc(Cl)cc2)c1C(=O)OCC` here?
The MIC was 3.13 µg/mL (≈ 8.56 µM).

Which MIC does the source give for `CCOC(=O)Cn1nnc(C(=O)OC)c1C(=O)OC` here?
The MIC was greater than 25 µg/mL.

How did the MIC turn out when `CCOC(=O)Cn1nnc(C(=O)OCC)c1C(=O)OCC` was run?
Its MIC is greater than 25 µg/mL.

How did the MIC turn out when `COC(=O)c1nnn(CC(=O)c2ccc(OC)cc2)c1C(=O)OC` was run?
The MIC was 12.5 µg/mL (≈ 37.5 µM).

With `CCOC(=O)c1nnn(CC(=O)c2ccccc2)c1C(=O)OCC` as the compound, how does the MIC read?
The MIC was 3.13 µg/mL (≈ 9.45 µM).

For `COC(=O)c1nnn(CC(=O)c2ccc(Cl)cc2)c1C(=O)OC`, which MIC is on record?
Its MIC is 6.25 µg/mL (≈ 18.5 µM).

For `COC(=O)c1nnn(Cc2ccccc2)c1C(=O)OC`, which MIC is on record?
The MIC was 25 µg/mL (≈ 90.8 µM).

For `CCOC(=O)c1nnn(CC(=O)c2ccc(Br)cc2)c1C(=O)OCC`, which MIC is on record?
The MIC was 1.56 µg/mL (≈ 3.8 µM).

How did the MIC turn out when `CCOC(=O)c1nnn(CC(=O)OC)c1C(=O)OCC` was run?
Its MIC is greater than 25 µg/mL.

How did the MIC turn out when `NNC(=O)c1ccncc1` [ISONIAZID] was run?
Its MIC is 0.75 µg/mL (≈ 5.47 µM).

The compounds below were run on Mycobacterium tuberculosis (assay: Ratio of ethambutol MIC to compound MIC for Mycobacterium tuberculosis H37Rv).
Format: functional

With `CCOC(=O)c1nnn(CC(=O)c2ccc(Br)cc2)c1C(=O)OCC` as the compound, how does the Ratio read?
The Ratio was 2.08.
